Activity calls are given as the source filed them.
Assays:
[1] = biological target: Glucose-6-phosphate 1-dehydrogenase (Homo sapiens, UniProt P11413); experiment: inhibition of Homo sapiens G6PD, dose series – biochemical, fluorescence, selectivity assay for P. falciparum G6PD inhibitor project, dose response (AID 504792); type: functional
[2] = biological target: T1, DNA dC->dU-editing enzyme APOBEC-3G (Homo sapiens, UniProt Q9HC16); experiment: Dose Response confirmation of small molecule APOBEC3G DNA Deaminase Inhibitors via a fluorescence-based single-stranded DNA deaminase assay. [Related pubchem assays (depositor defined):AID493012, AID493028]; type: functional
T1 sequence (Q9HC16 whole entry): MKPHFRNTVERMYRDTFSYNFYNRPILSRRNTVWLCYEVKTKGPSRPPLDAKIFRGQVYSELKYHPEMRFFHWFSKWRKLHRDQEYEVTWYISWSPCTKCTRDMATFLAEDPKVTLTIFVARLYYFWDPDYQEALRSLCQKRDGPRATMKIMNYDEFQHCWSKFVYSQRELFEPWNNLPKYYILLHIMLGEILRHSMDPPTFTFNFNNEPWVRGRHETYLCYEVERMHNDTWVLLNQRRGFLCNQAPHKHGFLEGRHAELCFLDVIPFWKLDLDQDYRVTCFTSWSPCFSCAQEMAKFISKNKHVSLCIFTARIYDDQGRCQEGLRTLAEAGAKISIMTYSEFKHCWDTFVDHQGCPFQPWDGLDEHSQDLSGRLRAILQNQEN

[3] = biological target: T2, Voltage-gated N-type calcium channel alpha-1B subunit/Amyloid beta A4 precursor protein-binding family A member 1 (Homo sapiens, UniProt Q00975+Q02410); type: protein assay
T2 sequence (Q00975 whole entry): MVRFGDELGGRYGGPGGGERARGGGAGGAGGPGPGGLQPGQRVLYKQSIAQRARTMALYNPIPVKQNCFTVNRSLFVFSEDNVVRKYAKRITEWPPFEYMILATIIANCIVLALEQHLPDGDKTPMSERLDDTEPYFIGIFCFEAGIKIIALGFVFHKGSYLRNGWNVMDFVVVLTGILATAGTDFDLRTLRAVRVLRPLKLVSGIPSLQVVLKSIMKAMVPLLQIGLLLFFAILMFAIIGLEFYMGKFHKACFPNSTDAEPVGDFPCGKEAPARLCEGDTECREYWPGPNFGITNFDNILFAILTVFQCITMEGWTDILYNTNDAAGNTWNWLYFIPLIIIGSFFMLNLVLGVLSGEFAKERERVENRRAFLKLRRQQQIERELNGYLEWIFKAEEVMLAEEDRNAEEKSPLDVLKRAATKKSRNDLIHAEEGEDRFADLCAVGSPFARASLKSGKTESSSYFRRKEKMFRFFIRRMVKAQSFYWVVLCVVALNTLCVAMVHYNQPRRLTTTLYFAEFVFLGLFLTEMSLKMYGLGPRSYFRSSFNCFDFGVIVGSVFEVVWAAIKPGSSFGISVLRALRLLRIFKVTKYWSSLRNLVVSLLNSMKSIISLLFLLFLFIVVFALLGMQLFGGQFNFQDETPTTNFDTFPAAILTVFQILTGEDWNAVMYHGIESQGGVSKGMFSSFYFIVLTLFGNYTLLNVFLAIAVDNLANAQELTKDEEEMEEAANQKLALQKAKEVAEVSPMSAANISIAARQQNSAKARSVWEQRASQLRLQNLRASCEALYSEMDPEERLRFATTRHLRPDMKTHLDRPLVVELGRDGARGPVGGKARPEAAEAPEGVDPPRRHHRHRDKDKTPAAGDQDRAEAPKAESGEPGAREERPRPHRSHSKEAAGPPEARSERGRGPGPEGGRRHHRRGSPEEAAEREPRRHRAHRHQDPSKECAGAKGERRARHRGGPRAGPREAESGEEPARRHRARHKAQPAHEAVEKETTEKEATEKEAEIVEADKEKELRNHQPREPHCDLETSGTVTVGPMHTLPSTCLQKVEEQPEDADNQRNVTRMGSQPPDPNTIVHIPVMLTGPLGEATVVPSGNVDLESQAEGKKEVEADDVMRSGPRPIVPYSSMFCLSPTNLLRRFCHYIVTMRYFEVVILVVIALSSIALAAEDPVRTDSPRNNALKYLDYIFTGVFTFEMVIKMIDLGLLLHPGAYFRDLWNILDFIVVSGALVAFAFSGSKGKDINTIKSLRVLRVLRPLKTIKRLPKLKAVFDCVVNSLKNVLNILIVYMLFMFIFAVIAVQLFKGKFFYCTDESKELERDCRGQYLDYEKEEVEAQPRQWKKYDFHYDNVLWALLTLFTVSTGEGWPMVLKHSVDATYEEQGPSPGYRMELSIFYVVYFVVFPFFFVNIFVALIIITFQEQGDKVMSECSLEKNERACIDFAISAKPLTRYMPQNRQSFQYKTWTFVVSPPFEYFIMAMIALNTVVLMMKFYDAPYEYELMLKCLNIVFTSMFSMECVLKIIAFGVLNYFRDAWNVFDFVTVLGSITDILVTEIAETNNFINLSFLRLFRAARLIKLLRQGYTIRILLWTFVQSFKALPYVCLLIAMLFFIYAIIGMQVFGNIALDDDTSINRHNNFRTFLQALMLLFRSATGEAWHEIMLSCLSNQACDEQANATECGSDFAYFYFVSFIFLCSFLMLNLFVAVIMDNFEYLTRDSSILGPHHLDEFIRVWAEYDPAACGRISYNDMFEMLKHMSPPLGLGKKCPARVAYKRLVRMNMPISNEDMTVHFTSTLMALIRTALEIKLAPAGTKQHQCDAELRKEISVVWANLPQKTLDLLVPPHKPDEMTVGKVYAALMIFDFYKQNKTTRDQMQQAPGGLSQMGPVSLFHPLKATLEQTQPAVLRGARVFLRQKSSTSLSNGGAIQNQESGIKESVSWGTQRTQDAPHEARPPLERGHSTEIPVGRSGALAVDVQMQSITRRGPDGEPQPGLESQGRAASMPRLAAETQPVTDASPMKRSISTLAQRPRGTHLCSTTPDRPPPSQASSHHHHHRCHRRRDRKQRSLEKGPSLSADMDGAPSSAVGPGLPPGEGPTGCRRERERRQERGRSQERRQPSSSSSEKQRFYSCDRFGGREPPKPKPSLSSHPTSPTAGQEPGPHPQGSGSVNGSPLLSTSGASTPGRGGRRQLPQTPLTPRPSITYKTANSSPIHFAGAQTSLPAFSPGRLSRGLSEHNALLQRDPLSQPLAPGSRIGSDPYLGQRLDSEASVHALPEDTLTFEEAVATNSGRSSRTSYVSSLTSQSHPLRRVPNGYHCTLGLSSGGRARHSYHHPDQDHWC
T2 sequence (Q02410 whole entry): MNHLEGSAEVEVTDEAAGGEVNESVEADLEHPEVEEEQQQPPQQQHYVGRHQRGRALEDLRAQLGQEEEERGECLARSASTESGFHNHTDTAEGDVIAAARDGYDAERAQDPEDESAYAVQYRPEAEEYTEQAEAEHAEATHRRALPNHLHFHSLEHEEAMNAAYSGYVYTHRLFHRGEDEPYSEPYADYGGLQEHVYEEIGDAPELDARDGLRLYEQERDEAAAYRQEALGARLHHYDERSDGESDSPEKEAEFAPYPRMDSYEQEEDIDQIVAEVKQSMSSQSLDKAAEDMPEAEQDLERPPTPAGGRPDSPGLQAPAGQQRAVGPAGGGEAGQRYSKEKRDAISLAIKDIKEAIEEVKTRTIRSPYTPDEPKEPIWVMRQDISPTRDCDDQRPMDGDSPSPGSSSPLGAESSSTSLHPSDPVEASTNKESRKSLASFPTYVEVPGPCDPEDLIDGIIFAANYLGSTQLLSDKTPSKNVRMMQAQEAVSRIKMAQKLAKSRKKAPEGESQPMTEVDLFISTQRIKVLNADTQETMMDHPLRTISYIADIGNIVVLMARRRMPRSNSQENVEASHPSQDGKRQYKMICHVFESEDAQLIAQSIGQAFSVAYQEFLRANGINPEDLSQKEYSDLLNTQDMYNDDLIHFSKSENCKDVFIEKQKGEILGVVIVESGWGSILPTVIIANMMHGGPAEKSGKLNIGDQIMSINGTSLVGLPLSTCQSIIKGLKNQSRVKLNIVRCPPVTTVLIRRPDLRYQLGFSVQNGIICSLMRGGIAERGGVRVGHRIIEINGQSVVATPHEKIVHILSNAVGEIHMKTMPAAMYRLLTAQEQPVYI

[4] = biological target: T2, Voltage-gated N-type calcium channel alpha-1B subunit/Amyloid beta A4 precursor protein-binding family A member 1; type: protein assay; remark: listed apart in the source
[5] = biological target: T3, Melanin-concentrating hormone receptor 1 (Homo sapiens, UniProt Q99705); experiment: Late-stage fluorescence-based counterscreen for antagonists of the G-protein coupled receptor 7 (GPR7): cell-based dose response assay to identify antagonists of the melanin-concentrating hormone receptor 1 (MCHR1). [Related pubchem assays (depositor defined):AID1861, AID1880, AID1952, AID2148, AID2251, AID2257, AID485339]; type: functional
T3 sequence (Q99705 whole entry): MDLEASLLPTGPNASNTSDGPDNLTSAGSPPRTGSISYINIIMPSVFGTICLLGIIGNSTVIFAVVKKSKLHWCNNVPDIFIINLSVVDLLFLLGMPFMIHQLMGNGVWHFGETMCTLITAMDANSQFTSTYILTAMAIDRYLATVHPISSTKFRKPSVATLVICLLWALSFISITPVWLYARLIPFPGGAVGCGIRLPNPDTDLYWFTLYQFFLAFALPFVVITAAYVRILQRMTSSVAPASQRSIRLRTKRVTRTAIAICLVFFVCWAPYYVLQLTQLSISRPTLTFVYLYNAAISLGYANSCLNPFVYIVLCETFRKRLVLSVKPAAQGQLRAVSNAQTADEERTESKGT

[6] = biological target: T3, Melanin-concentrating hormone receptor 1; experiment: Fluorescence-based counterscreen for antagonists of the G-protein coupled receptor 7 (GPR7): cell-based high throughput dose response assay to identify antagonists of the melanin-concentrating hormone receptor 1 (MCHR1).; type: functional
[7] = biological target: T4, Neuropeptides B/W receptor type 1 (Homo sapiens, UniProt P48145); experiment: human NPBW1 receptor blockade, IC50 – cell-based, fluorescence, dose response, late-stage follow-up (AID 463251); type: functional
T4 sequence (P48145 whole entry): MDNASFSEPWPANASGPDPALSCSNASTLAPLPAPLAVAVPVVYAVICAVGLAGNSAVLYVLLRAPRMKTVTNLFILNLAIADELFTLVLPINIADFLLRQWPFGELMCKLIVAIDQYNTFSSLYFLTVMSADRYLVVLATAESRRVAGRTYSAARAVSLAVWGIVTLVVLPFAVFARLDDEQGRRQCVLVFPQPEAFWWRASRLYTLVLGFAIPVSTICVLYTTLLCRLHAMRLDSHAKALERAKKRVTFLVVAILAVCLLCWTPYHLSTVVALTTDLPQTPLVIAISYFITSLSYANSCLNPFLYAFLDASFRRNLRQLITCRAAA

[8] = biological target: T5, Corticotropin-releasing factor receptor 2/Corticotropin-releasing factor-binding protein (Homo sapiens, UniProt P24387+Q13324); experiment: activators of CRF receptor 2 with binding protein – uHTS hits, confirmation (AID 602473); type: functional; details: read-out: EC50_Mean
T5 sequence (Q13324 whole entry): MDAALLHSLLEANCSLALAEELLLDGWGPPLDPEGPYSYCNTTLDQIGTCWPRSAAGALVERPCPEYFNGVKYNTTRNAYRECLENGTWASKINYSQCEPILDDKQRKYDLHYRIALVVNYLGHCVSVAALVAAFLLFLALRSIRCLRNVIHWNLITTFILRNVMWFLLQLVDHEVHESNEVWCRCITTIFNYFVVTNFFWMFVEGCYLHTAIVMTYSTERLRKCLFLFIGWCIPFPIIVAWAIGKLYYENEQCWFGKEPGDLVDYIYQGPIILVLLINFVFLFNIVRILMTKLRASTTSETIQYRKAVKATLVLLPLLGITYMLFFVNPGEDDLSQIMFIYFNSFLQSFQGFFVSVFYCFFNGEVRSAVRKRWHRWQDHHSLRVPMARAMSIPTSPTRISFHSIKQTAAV
T5 sequence (P24387 whole entry): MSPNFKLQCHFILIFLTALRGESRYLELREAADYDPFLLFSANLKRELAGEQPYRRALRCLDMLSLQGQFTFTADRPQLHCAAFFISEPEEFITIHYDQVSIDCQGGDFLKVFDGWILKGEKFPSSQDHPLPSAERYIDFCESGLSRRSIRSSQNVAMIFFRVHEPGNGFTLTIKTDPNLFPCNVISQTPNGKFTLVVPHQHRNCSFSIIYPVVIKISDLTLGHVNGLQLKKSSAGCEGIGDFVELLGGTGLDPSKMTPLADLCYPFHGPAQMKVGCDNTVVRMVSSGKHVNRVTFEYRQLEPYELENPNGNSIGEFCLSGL

[9] = biological target: T4, Neuropeptides B/W receptor type 1; experiment: Fluorescence-based dose response cell-based high throughput screening assay to identify antagonists of the G-protein coupled receptor 7 (GPR7). [Related pubchem assays: 1952 (Screening assay (GPR7 antagonists).), 1880 (Summary AID.)]; type: functional
[10] = biological target: T6, Intestinal-type alkaline phosphatase (Homo sapiens, UniProt P09923); experiment: human intestinal alkaline phosphatase activators, dose response, biochemical, luminescence, uHTS hits (AID 463120); type: functional
T6 sequence (P09923 whole entry): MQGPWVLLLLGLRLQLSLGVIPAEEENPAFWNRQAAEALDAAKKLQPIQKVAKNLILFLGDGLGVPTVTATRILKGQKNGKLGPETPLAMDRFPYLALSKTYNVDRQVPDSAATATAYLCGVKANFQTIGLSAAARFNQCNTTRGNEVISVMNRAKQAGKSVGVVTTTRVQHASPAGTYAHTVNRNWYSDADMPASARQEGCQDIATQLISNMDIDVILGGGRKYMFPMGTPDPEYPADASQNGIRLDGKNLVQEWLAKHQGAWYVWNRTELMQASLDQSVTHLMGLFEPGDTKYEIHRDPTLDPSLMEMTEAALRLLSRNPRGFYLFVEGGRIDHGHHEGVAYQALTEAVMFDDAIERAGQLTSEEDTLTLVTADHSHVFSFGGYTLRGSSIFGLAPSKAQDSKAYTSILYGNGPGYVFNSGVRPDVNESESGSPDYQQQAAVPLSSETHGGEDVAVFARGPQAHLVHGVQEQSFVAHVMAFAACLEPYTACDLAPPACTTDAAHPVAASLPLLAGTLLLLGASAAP

[11] = biological target: T6, Intestinal-type alkaline phosphatase; experiment: activation of human intestinal alkaline phosphatase – biochemical, luminescent, uHTS hits, set 2, dose response (AID 488817); type: functional;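 note: potency of activators that raise enzyme activity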
[12] = biological target: T7, Alkaline phosphatase, tissue-nonspecific isozyme (Homo sapiens, UniProt P05186); experiment: activation of tissue-nonspecific alkaline phosphatase – biochemical, TNAP isozyme, human IAP uHTS hits, selectivity assay for human IAP activator project, dose response (AID 488886); type: functional;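 note: potency of compounds raising TNAP activity as a selectivity check on IAP activators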
T7 sequence (P05186 whole entry): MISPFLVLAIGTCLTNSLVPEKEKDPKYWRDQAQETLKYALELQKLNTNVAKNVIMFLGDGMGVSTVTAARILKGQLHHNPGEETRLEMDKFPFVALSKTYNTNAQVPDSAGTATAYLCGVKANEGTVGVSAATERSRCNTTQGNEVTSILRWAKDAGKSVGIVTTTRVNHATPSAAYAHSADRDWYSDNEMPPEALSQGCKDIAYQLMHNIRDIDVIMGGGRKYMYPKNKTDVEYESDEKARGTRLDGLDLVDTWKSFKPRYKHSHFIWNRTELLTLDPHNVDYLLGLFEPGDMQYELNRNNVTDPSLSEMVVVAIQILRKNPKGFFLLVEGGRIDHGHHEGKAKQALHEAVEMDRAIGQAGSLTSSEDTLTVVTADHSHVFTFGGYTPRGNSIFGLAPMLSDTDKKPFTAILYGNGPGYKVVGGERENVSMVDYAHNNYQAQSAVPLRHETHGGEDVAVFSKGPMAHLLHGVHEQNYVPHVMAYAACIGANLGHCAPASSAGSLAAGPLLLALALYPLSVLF

[13] = biological target: T8, Intestinal-type alkaline phosphatase (Mus musculus, UniProt P24822); experiment: PubChem AID 488875; type: functional
T8 sequence (P24822 whole entry): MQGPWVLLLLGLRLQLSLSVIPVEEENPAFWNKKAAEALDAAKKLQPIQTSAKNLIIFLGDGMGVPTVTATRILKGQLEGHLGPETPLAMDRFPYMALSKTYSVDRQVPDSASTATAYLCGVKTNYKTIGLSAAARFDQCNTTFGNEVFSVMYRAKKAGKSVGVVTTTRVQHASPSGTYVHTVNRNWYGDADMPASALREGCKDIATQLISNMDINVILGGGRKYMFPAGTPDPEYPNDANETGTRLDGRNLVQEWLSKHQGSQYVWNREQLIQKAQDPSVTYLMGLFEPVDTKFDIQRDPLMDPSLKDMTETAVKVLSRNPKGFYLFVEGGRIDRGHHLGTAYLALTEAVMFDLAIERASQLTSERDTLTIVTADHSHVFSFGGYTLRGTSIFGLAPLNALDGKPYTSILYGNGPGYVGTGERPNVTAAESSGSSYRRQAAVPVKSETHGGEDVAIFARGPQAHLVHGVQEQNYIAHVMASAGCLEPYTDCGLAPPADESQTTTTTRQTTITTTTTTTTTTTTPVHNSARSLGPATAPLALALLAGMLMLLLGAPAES

[14] = biological target: T8, Intestinal-type alkaline phosphatase; experiment: PubChem AID 488874; type: functional
SUMO E1/E2 = SUMO E1/E2 (Homo sapiens, UniProt P63279+Q9UBE0+Q9UBT2); experiment: SAR analysis of SUMOylation using HTRF in an in-Vitro dose response assay. [Related pubchem assays (depositor defined):AID2006, AID2011, AID2018, AID2069, AID2658]; type: functional
[15] = biological target: T2, Voltage-gated N-type calcium channel alpha-1B subunit/Amyloid beta A4 precursor protein-binding family A member 1; experiment: disruptors of Mint-PDZ/N-type channel peptide interaction – biochemical, HTRF, SAR follow-up (AID 2489); type: functional
[16] = biological target: T2, Voltage-gated N-type calcium channel alpha-1B subunit/Amyloid beta A4 precursor protein-binding family A member 1; experiment: disruptors of Mint-PDZ/N-type channel peptide interaction – biochemical, HTRF, set 2, SAR follow-up (AID 434980); type: functional
[17] = biological target: T9, Fructose-bisphosphate aldolase (Mycobacterium tuberculosis, UniProt P9WQA3); experiment: Fluorescence-based biochemical high throughput dose response assay for inhibitors of the fructose-bisphosphate aldolase (FBA) of M. tuberculosis.; type: functional
T9 sequence (P9WQA3 whole entry): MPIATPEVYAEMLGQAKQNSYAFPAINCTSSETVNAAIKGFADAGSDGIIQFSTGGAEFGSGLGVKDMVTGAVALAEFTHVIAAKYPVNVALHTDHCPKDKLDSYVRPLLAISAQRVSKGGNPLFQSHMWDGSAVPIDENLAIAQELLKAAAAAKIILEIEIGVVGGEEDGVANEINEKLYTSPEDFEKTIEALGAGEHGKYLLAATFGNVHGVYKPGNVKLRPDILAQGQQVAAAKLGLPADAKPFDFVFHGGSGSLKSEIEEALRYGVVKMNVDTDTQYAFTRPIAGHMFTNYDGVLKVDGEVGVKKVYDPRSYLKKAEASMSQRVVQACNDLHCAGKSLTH

[18] = biological target: SWI/SNF-related matrix-associated actin-dependent regulator of chromatin subfamily A member 2 (Homo sapiens, UniProt P51531); experiment: Luminescence-based cell-based high throughput dose response assay to identify activators of the function of SWI/SNF related, matrix associated, actin dependent regulator of chromatin, subfamily a, member 2 (SMARCA2, BRM).; type: functional
[19] = Counterscreen for activators of the function of SWI/SNF related, matrix associated, actin dependent regulator of chromatin, subfamily a, member 2 (SMARCA2, BRM): Luminescence-based cell-based high throughput dose response assay to identify non-selective compounds using the VP16 reporter assay.; type: functional
[20] = biological target: T6, Intestinal-type alkaline phosphatase; experiment: Dose Response confirmation of uHTS hits from a small molecule inhibitors of human intestinal alkaline phosphatase via a luminescent assay. [Related pubchem assays (depositor defined):AID2544, AID2574]; type: functional
[21] = biological target: Phosphoethanolamine/phosphocholine phosphatase (Homo sapiens, UniProt Q8TCT1); experiment: SAR assay for compounds that inhibit PHOSPHO1. [Related pubchem assays (depositor defined):AID1545, AID1565, AID1574]
[22] = alpha-synuclein stem-loop luciferase translation blockers – H4 neuroglioma cells, luminescence, confirmation (AID 1988); type: functional, cell-based
[23] = biological target: Nucleotide-binding oligomerization domain-containing protein 2 (Homo sapiens, UniProt Q9HC29); experiment: inhibition of NOD2-driven NF-kB reporter – cell-based, luminescence, uHTS, HEK293 (AID 1566); type: functional
[24] = Luminescence Cell-Based Dose Response HTS to Identify Inhibitors of 5'UTR Stem-Loop Driven Prion Protein mRNA Translation in H4 Neuroglioblastoma Cells. [Related pubchem assays: 1827 (Project Summary), 1813 (Primary HTS)]; type: functional
HEK293 [25] = experiment: cells; type: functional, cell-based; details: Homo sapiens
HEK293 [26] = experiment: NOD2 signaling inhibitors in MDP-stimulated cells, cell-based, uHTS, luminescence (AID 2001); type: functional; details: Homo sapiens
HEK293 [27] = experiment: cells; type: functional, cell-based; details: Homo sapiens; remark: listed apart in the source
HEK293 [28] = experiment: inhibition of NOD1-driven NF-kB reporter – cell-based, luminescence, uHTS, primary screen (AID 1578); type: functional; details: Homo sapiens
[29] = biological target: T1, DNA dC->dU-editing enzyme APOBEC-3G; type: functional
HEK293 [30] = experiment: cells; type: functional, cell-based; details: Homo sapiens; remark: listed apart in the source
[31] = biological target: DNA dC->dU-editing enzyme APOBEC-3A (Homo sapiens, UniProt P31941); experiment: Dose Response confirmation of small molecule APOBEC3A DNA Deaminase Inhibitors via a fluorescence-based single-stranded DNA deaminase assay. [Related pubchem assays (depositor defined):AID493011, AID493024]; type: functional
[32] = luciferase reporter signal suppression in cells – H4 neuroglioma cells, luminescence, dose response (AID 1990); type: functional, cell-based

## Cc1cc(C)c2c(=O)n(CC(=O)NC3CCCC3)sc2n1
[1]
  IC50: > 80 µM (inactive)
[2]
  IC50: > 100 µM (inactive)
[3]
  IC50: 7.6 µM (active)
[4]
  IC50: 42.7 µM (active)

## COc1ccccc1-n1c(SCC(N)=O)nnc1-c1ccc(S(=O)(=O)N2CCCCC2)cc1
[5]
  IC50: > 20 µM (inactive)
[6]
  IC50: > 43.8 µM (not active)
[7]
  IC50: > 20 µM (inactive)
[8]
  EC50: 12.7 µM (active)
[9]
  IC50: 5.36 µM (active)

## Cc1cc(C(=O)NC2CC(C)(C)Cc3c2cnn3-c2ccccc2)[nH]n1 (stereo unspecified)
[10]
  EC50: 70.7 µM (active)
[11]
  EC50: 45.5 µM (active)
[12]
  EC50: 48.2 µM (active)
[13]
  EC50: 55.1 µM (active)

## Cc1nc2c3ccccc3nc(NNC(=O)CCC(=O)NCCN3CCN(c4ccccc4)CC3)n2n1
[10]
  EC50: 8.73 µM (active)
[14]
  IC50: 49.8 µM (active)
[11]
  EC50: 13.7 µM (active)
[12]
  EC50: 14.1 µM (active)

## COc1ccccc1CNC(=O)c1cc(-c2ccco2)nc2ccccc12
SUMO E1/E2
  IC50: 2.51 µM (active)
[15]
  IC50: 24.7 µM (active)
[16]
  IC50: 22 µM (active)

## Cc1cccn2c(=O)c3cc(C(=O)NC4CCCC4)c(=N)n(C4CCCCC4)c3nc12
[17]
  IC50: 0.469 µM (active)
[18]
  EC50: > 91.2 µM (inactive)
[19]
  EC50: > 91.2 µM (inactive)
[20]
  IC50: > 100 µM (inactive)

## COc1ccc(-c2nc(N)s[n+]2-c2ccccc2)cc1
[21]
  IC50: 1.25 µM (inactive)

## CCCCCCCn1ccc(=N)cc1
[22]
  EC50: 14.8 µM (active)
[23]
  EC50: 8.15 µM (active)
[24]
  EC50: > 120 µM (not active)
HEK293 [25]
  IC50: 5.72 µM (active)
HEK293 [26]
  IC50: 6.34 µM (active)
HEK293 [27]
  IC50: 18.1 µM (active)
HEK293 [28]
  EC50: 6.12 µM (active)
[29]
  IC50: 2.51 µM (active)
HEK293 [30]
  IC50: > 20 µM (inactive)
[31]
  IC50: 1.83 µM (active)
[32]
  EC50: 13 µM (active)

— ChEMBL document CHEMBL1201862, “PubChem BioAssay data set” (2004)
